Measured values published in patent publication US5914351A, “Anti-viral aromatic hydrazones” (Uniroyal Chemical Company, Inc., priority 1997, dated 1999).
Values after ≈ are worked out from the molar mass of the structure shown.

Legend:
Assay type in all cases: cell-based
[1] = tested on: HIV-1/181-Cys; experiment: Inhibition of HIV-1 induced syncytium formation in CEM cells, RT mutant 181-Cys; conditions: Human immunodeficiency virus 1, CCRF-CEM, 96 h, read-out: EC50 181-Cys
Excerpt: (§1) CEM cells were obtained from the American Tissue Cell Culture Collection (Rockville, Md.). HIV-1 (IIIB) was originally obtained from the culture supernatant of persistently HIV-1-infected H9 cells and was provided by R. C. Gallo and M. Popovic (National Cancer Institute, National Institutes of Health, Bethesda, Md.). The selection and characterization of the HIV-1 RT mutant strains were done as follows: HIV-1/100-Ile ("100-Ile") was selected for resistance against TIBO R82150 as described in Balzarini et al, Virology 192: 246-253 (1993); HIV-1/103-Asn ("103-Asn") was selected for resistance against TIBO R82913 as described in Balzarini et al, Virology 192: 246-253 (1993); HIV-1/106-Ala ("106-Ala") was selected for resistance against nevirapine as described in Balzarini et al, J. Virol. 67: 5353-5359 (1993); HIV-1/138-Lys ("138-Lys") was selected for resistance against TSAO-m^3T as described in Balzarini et al, Virology 192: 246-253 (1993) and Balzarini et al, Proc. Nat. Acad. Sci. U.S.A. 90: 6952-6956 (1993); HIV-1/181-Cys ("181-Cys") was selected for resistance against pyridinone L-697,661 as described in Balzarini et al, Virology 192: 246-253 (1993); and HIV-1/188-His ("188-His") was selected for resistance against HEPT as described in Balzarini et al, Mol. Pharmocol. 44: 694-701 (1993). 188-His was then further converted to HIV-1/188-Leu ("188-Leu") upon further passage in cell culture in the absence of the HEPT.
(§2) CEM cells were suspended at ≈300,000 cells per mL of culture medium and infected with approximately 100 CCID50 (CCID50 being the 50% cell culture infective dose) of HIV-1 (IIIB) or one of the HIV-1 RT mutant strains described above. Then 100 μL of the infected cell suspensions was added to 200 μL microtiter plate wells containing 100 μL of appropriate serial (5-fold) dilutions of the test compounds. The inhibitory effect of the test compounds on HIV-1 induced syncytium formation in CEM cells was examined microscopically on day 4 post infection. […]

[2] = tested on: HIV-1 IIIB; experiment: Inhibition of HIV-1 induced syncytium formation in CEM cells, HIV-1 IIIB (wild type); conditions: Human immunodeficiency virus 1, CCRF-CEM, 96 h, day 4 post infection
Excerpt: as §1
(§3) CEM cells were suspended at ≈300,000 cells per mL of culture medium and infected with approximately 100 CCID50 (CCID50 being the 50% cell culture infective dose) of HIV-1 (IIIB) or one of the HIV-1 RT mutant strains described above. Then 100 μL of the infected cell suspensions was added to 200 μL microtiter plate wells containing 100 μL of appropriate serial (5-fold) dilutions of the test compounds. The inhibitory effect of the test compounds on HIV-1 induced syncytium formation in CEM cells was examined microscopically on day 4 post infection. The 50% effective concentration (EC50) was defined as the test compound concentration that inhibits syncytium formation in the HIV-1 infected cell cultures by 50%.

[3] = tested on: HIV-1/138-Lys; experiment: Inhibition of HIV-1 induced syncytium formation in CEM cells, RT mutant 138-Lys; conditions: Human immunodeficiency virus 1, CCRF-CEM, 96 h, read-out: EC50 138-Lys
Excerpt: as §1, §3

[4] = tested on: HIV-1/106-Ala; experiment: Inhibition of HIV-1 induced syncytium formation in CEM cells, RT mutant 106-Ala; conditions: Human immunodeficiency virus 1, CCRF-CEM, 96 h, read-out: EC50 106-Ala
Excerpt: as §1, §2

[5] = tested on: HIV-1/103-Asn; experiment: Inhibition of HIV-1 induced syncytium formation in CEM cells, RT mutant 103-Asn; conditions: Human immunodeficiency virus 1, CCRF-CEM, 96 h, read-out: EC50 103-Asn
Excerpt: as §1, with “188-His was then further converted to HIV-1/188-Leu ("188-Leu") upon further passage in cell culture in the absence of the HEPT.” left out

[6] = tested on: HIV-1/100-Ile; experiment: Inhibition of HIV-1 induced syncytium formation in CEM cells, RT mutant 100-Ile; conditions: Human immunodeficiency virus 1, CCRF-CEM, 96 h, read-out: EC50 100-Ile
Excerpt: as §1, with “188-His was then further converted to HIV-1/188-Leu ("188-Leu") upon further passage in cell culture in the absence of the HEPT.” left out

[7] = tested on: HIV-1/188-Leu; experiment: Inhibition of HIV-1 induced syncytium formation in CEM cells, RT mutant 188-Leu; conditions: Human immunodeficiency virus 1, CCRF-CEM, 96 h, read-out: EC50 188-Leu
Excerpt: as §1, with “188-His was then further converted to HIV-1/188-Leu ("188-Leu") upon further passage in cell culture in the absence of the HEPT.” left out

**Q.** With `Cc1occc1C(=O)Nc1ccc(Cl)c(C=NN2CCCC2)c1` [Compound 3] as the molecule, how does the EC50 [1] read?
**A.** Its EC50 is 1 µg/mL (≈ 3.01 µM).

**Q.** What about the EC50 [2] of the same molecule?
**A.** Its EC50 is 0.325 µg/mL (≈ 0.979 µM).

**Q.** What about the EC50 [3] of the same molecule?
**A.** The EC50 was 1.6 µg/mL (≈ 4.82 µM).

**Q.** What about the EC50 [4] of the same molecule?
**A.** The EC50 was 1.3 µg/mL (≈ 3.92 µM).

**Q.** Which results are given for `Cc1occc1C(=S)Nc1ccc(Cl)c(C=NN(C)C)c1` [Compound 2]?
**A.** EC50 [1]: 0.13 µg/mL (≈ 0.404 µM); EC50 [5]: 0.65 µg/mL (≈ 2.02 µM); EC50 [2]: 0.008 µg/mL (≈ 0.0249 µM); EC50 [6]: 0.14 µg/mL (≈ 0.435 µM); EC50 [3]: 0.04 µg/mL (≈ 0.124 µM); EC50 [4]: 0.065 µg/mL (≈ 0.202 µM)

**Q.** `Cc1occc1C(=S)Nc1ccc(Cl)c(C=NN2CCOCC2)c1` [Compound 5, N-[4-chloro-3-[(4-morpholinylimino)methyl]phenyl]-2-methyl-3-furancarbothioamide] was tested. Which EC50 [2] did it give?
**A.** Its EC50 is 0.13 µg/mL (≈ 0.357 µM).

**Q.** Which EC50 [2] does the source give for `Cc1occc1C(=O)Nc1ccc(Cl)c(C=NN(C)C)c1` [Compound 1] here?
**A.** The EC50 was 0.225 µg/mL (≈ 0.736 µM).

**Q.** What about the EC50 [3] of the same molecule?
**A.** The EC50 was 1.6 µg/mL (≈ 5.23 µM).

**Q.** What does the source list for `Cc1occc1C(=S)Nc1ccc(Cl)c(C=NN2CCCC2)c1` [Compound 4]?
**A.** EC50 [1]: 0.1 µg/mL (≈ 0.287 µM); EC50 [5]: 0.34 µg/mL (≈ 0.977 µM); EC50 [2]: 0.015 µg/mL (≈ 0.0431 µM); EC50 [7]: 4.5 µg/mL (≈ 12.9 µM); EC50 [6]: 0.33 µg/mL (≈ 0.949 µM); EC50 [3]: 0.08 µg/mL (≈ 0.23 µM); EC50 [4]: 0.1 µg/mL (≈ 0.287 µM)
